Experimental data published in patent publication US20050288307A1, “Anti-viral compounds” (priority 2002, published 2005).
pIC50: −log10 of the molar value. Like-named read-outs stand apart in the source and are kept apart here.

Columns and labels:
CDK2/Cyclin E = target: T1, CDK2/Cyclin E (Homo sapiens, UniProt P24941); assay: CDK2/cyclin E kinase assay (GST-Rb phosphorylation); format: biochemical;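 further: enzyme source: His-tagged CDK2/cyclin E complex co-expressed recombinantly in Sf9 insect cells using baculovirus constructs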
T1 construct: His; made in house; host or cells: Sf9 insect cells (baculovirus)
Method: (§2) His-tagged CDK2/Cyclin E and CDK1/Cyclin B may be co-expressed and PKCα singularly expressed in Sf 9 insect cells infected with the appropriate baculovirus constructs. The cells are harvested two days after infection by low speed centrifugation and the proteins purified from the insect cell pellets by Metal-chelate chromatography. Briefly, the insect cell pellet is lysed in Buffer A (10 mM Tris-HCl, pH 8.0, 150 mM NaCl, 0.02% NP40 and 5 mM β-marcaptoethanol, 1 mM NaF. 1 mM Na3VO4 and Protease Inhibitors Coctail (Sigma) containing AEBSF, pepstatin A, E 64, bestatin, leupeptin) by sonication. The soluble fraction is cleared by centrifugation and loaded onto Ni-NTA-Agarose (Quiagen). Non bound proteins were washed off with 300 mM NaCl, 5-15 mM Imidazole in Buffer A and the bound proteins eluted with 250 mM Imidazole in Buffer A. The purified proteins are extensively dialyzed against Storage buffer (20 mM HEPES pH 7.4, 50 mM NaCl, 2 mM DTT, 1 mM EDTA, 1 mM EGTA, 0.02% NP40, 10% v/v Glycerol) aliquoted and stored at −70° C.

CDK2/cyclin A = CDK2/cyclin A (Homo sapiens, UniProt P24941); assay: CDK2/cyclin A kinase assay; format: biochemical;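 further: Read-out is incorporated radioactivity retained on P81 filter plates and quantified by scintillation counting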
Method: Reactions were stopped on ice, followed by filtration through p81 filterplates (Whatman Polyfiltronics, Kent, UK). After washing 3 times with 75 mM orthophosphoric acid, plates were dried, scintillant added and incorporated radioactivity measured in a scintillation counter (TopCount, Packard Instruments, Pangboume, Berks, UK).

CDK4/Cyclin D1 = CDK4/Cyclin D1 (Homo sapiens, UniProt P11802); assay: CDK4/cyclin D1 kinase assay (GST-Rb phosphorylation); format: biochemical
CDK1/Cyclin B = CDK1/Cyclin B (Homo sapiens, UniProt P06493); assay: CDK1/cyclin B kinase assay (GST-Rb phosphorylation);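 further: Enzyme: His-tagged CDK1/Cyclin B co-expressed in baculovirus-infected Sf9 insect cells, purified via metal-chelate chromatography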
Method: as §2

CDK7/cyclin H = CDK7/cyclin H (Homo sapiens, UniProt P50613); assay: CDK7 assay (CTD peptide substrate); format: biochemical
Method: (§1) CTD peptide substrate (biotinyl-Ahx-(Tyr-Ser-Pro-Thr-Ser-Pro-Ser)4-NH2; 1-2 mg/mL) and recombinant human CDK7/cyclin H, CDK9/cyclin T1, or CDK9/cyclin K (0.5-2 μg) were incubated for 45 min at 30° C. in the presence of varying amounts of test compound in 20 mM MOPS pH 7.2, 25 mM β-glycerophosphate, 5 mM EGTA, 1 mM DTT, 1 mM sodium vanadate, 15 mM MgCl2, and 100 μM ATP (containing a trace amount of ^32PγATP) in a total volume of 25 μL in a 96-well microtiter plate. The reaction was stopped by placing the plate on ice for 2 min. Avidin (50 μg) was added to each well, and the plate was incubated at room temp for 30 min. The samples were transferred to a 96-well P81 filter plate, and washed (4×200 μL per well) with 75 mM phosphoric acid. Microscint 40 scintillation liquid (50 μL) was added to each well, and the amount of ^32P incorporation for each sample was measured using a Packard Topcount microplate scintillation counter.

CDK9/cyclin T1 = CDK9/cyclin T1 (Homo sapiens, UniProt P50750); assay: CDK9 assay (CTD peptide substrate); format: biochemical
Method: as §1

[1] = Table 3, read-out: Average IC50 CDK2 cyclin E1
[2] = Table 3, read-out: Average IC50 CDK2 cyclin A2
[3] = Table 3, read-out: Average IC50 CDK4 cyclin D1
[4] = Table 3, read-out: Average IC50 CDK7 cyclin H
[5] = Table 3, read-out: Average IC50 CDK9 cyclin T1
[6] = Table 4, read-out: Kinase Inhibition IC50 CDK7-cyclin H
[7] = Table 4, read-out: Kinase Inhibition IC50 CDK4-cyclin D1
[8] = Table 4, read-out: Kinase Inhibition IC50 CDK9-cyclin T1

Sequence of CDK7/cyclin H (P50613 whole entry): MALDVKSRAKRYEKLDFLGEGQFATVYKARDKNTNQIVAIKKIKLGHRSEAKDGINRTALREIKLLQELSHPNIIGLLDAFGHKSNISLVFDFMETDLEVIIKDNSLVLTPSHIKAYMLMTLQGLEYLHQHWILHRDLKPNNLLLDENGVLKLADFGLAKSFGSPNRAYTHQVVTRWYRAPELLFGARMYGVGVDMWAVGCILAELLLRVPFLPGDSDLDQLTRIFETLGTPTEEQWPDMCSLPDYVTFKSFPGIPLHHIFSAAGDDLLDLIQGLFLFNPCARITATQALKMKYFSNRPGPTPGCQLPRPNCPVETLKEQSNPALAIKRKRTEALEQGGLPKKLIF
Sequence of CDK7/cyclin H (P51946 whole entry partner): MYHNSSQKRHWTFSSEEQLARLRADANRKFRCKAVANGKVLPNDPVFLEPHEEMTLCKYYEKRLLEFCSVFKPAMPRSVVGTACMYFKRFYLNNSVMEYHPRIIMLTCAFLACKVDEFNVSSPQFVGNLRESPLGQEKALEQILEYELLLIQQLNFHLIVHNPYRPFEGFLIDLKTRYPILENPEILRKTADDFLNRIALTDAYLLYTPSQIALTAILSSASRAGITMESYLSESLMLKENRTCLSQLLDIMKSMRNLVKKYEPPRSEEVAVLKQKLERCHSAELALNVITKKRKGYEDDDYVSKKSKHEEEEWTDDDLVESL
Sequence of CDK9/cyclin T1 (P50750 whole entry): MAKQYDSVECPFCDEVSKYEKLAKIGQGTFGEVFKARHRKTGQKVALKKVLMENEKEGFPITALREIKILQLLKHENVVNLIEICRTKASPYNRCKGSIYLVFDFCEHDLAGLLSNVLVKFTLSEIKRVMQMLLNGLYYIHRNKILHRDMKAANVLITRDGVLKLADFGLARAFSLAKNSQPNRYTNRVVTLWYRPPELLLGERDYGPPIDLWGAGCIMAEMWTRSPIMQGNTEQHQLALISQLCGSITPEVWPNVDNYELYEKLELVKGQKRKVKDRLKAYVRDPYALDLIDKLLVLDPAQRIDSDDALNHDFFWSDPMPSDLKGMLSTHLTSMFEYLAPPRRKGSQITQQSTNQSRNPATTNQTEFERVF
Sequence of CDK9/cyclin T1 (O60563 whole entry partner): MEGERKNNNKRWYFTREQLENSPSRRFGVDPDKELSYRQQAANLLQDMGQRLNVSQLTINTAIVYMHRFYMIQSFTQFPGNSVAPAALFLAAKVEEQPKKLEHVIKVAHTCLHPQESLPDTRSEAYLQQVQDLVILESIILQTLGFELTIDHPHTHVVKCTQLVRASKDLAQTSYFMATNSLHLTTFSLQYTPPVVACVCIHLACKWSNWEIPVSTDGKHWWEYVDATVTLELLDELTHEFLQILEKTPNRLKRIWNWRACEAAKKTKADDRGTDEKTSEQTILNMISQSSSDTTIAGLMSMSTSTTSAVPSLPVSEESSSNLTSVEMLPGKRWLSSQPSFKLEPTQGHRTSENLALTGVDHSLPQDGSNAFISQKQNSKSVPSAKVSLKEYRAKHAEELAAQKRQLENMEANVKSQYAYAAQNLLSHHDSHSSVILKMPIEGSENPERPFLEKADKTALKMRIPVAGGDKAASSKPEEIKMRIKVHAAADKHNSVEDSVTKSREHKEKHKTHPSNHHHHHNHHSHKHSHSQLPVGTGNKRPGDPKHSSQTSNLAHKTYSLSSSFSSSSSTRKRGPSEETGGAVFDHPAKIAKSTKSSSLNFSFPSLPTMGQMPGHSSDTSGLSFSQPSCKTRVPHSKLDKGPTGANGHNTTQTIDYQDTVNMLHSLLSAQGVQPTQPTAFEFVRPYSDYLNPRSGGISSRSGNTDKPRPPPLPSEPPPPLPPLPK
Sequence of CDK1/Cyclin B (P06493 whole entry, species assumed): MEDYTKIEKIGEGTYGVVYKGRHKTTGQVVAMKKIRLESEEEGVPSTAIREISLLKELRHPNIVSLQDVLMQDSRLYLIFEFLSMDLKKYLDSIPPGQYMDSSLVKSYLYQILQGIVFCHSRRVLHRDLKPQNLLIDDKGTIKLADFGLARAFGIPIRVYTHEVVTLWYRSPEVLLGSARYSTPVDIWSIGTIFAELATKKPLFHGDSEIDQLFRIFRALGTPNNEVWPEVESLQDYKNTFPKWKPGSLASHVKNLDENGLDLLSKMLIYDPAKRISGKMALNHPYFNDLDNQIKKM
Sequence of CDK1/Cyclin B (P14635 whole entry partner, species assumed): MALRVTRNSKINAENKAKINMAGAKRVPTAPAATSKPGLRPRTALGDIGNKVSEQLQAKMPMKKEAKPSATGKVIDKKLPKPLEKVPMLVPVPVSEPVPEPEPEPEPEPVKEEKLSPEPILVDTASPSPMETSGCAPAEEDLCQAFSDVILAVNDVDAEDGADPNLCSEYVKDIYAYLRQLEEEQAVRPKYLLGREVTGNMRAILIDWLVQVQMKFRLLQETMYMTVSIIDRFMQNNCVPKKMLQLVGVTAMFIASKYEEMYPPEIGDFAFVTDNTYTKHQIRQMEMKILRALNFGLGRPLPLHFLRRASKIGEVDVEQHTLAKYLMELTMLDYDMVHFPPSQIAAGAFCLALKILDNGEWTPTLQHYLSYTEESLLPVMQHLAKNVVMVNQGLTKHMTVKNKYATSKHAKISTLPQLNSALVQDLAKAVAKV
Sequence of CDK4/Cyclin D1 (P11802 whole entry, species assumed): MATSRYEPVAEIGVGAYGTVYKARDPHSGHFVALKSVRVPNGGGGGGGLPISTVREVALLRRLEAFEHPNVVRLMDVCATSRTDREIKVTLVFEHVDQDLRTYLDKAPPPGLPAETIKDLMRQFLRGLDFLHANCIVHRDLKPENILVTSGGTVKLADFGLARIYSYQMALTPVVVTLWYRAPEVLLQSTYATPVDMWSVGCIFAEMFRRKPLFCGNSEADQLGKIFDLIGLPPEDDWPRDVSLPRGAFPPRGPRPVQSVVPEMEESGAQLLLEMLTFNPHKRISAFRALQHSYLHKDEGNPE
Sequence of CDK4/Cyclin D1 (P24385 whole entry partner, species assumed): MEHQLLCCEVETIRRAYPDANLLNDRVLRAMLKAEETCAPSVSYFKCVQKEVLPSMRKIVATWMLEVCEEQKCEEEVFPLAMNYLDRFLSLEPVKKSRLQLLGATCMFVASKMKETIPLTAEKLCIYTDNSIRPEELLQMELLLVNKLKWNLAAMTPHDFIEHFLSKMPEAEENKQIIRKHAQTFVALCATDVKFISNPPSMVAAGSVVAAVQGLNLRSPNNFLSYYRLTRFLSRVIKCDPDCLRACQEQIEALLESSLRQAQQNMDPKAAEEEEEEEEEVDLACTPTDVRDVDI

Compound | pIC50 (CDK2/Cyclin E; [1]) | pIC50 (CDK4/Cyclin D1; [3]) | pIC50 (CDK1/Cyclin B) | pIC50 (CDK7/cyclin H; [4]) | other results
Cc1nc(N)sc1-c1ccnc(Nc2cccc(F)c2)n1 [Compound 109, [4-(2-Amino-4-methyl-thiazol-5-yl)-pyrimidin-2-yl]-(3-fluoro-phenyl)-amine] | 6.42 | 5.92 | 5.54 | – | pIC50 (CDK2/cyclin A; [2]): 5.85
COC(=O)c1ccc(Nc2nccc(-c3sc(C)nc3C)n2)cc1 [Compound 37, 4-[4-(2,4-Dimethyl-thiazol-5-yl)-pyrimidin-2-ylamino]-benzoic acid methyl ester] | 5.12 | 4.77 | 4.42 | – | –
Cc1nc(C)c(-c2ccnc(Nc3cccc(NC(=N)N)c3)n2)s1 [Compound 99, N-{3-[4-(2,4-Dimethyl-thiazol-5-yl)-pyrimidin-2-ylamino]-phenyl}-guanidine] | – | – | – | 6.51 | pIC50 (CDK9/cyclin T1; [5]): 6.59
Cc1nc(C)c(-c2ccnc(Nc3ccc(O)c([N+](=O)[O-])c3)n2)s1 [Compound 32, 4-[4-(2,4-Dimethyl-thiazol-5-yl)-pyrimidin-2-ylamino]-2-nitro-phenol] | – | 6.42 | 4.85 | – | pIC50 (CDK9/cyclin T1; [5]): 7.26
COc1ccc(Nc2nccc(-c3sc(=O)n(C)c3C)n2)cc1 [Compound 157, 5-[2-(4-Methoxy-phenylamino)-pyrimidin-4-yl]-3,4-dimethyl-3H-thiazol-2-one] | – | – | 6.11 | – | pIC50 (CDK7/cyclin H; [6]): 5.70
Cc1c(-c2ccnc(Nc3ccc(N(C)C)cc3)n2)sc(=O)n1C [Compound 164, 5-[2-(4-Dimethylamino-phenylamino)-pyrimidin-4-yl]-3,4-dimethyl-3H-thiazol-2-one] | – | – | 5.66 | – | pIC50 (CDK4/Cyclin D1; [7]): 6.00; pIC50 (CDK7/cyclin H; [6]): 5.74; pIC50 (CDK9/cyclin T1; [8]): 6.89
CCNc1nc(C)c(-c2ccnc(Nc3cccc(OC)c3)n2)s1 [Compound 136, [4-(2-Ethylamino-4-methyl-thiazol-5-yl)-pyrimidin-2-yl]-(3-methoxy-phenyl)-amine] | 5.17 | – | < 4.00 | – | pIC50 (CDK2/cyclin A; [2]): 4.41
Cc1nc(N)sc1-c1ccnc(Nc2ccc(Br)cc2)n1 [Compound 120, [4-(2-Amino-4-methyl-thiazol-5-yl)-pyrimidin-2-yl]-(4-bromo-phenyl)-amine] | 6.00 | 5.80 | – | – | –
CCN(CC)CCOc1ccc(Nc2nccc(-c3sc(C)nc3C)n2)cc1 [Compound 122, [4-(2-Diethylamino-ethoxy)-phenyl]-[4-(2,4-dimethyl-thiazol-5-yl)-pyrimidin-2-yl]-amine] | – | – | – | 6.36 | –
Cc1nc(N(C)C)sc1-c1ccnc(Nc2ccc(Cl)cc2)n1 [Compound 141, (4-Chloro-phenyl)-[4-(2-dimethylamino-4-methyl-thiazol-5-yl)-pyrimidin-2-yl]-amine] | 5.41 | 5.32 | – | – | –
COc1cccc(Nc2nccc(-c3sc(N)nc3C)n2)c1 [Compound 108, [4-(2-Amino-4-methyl-thiazol-5-yl)-pyrimidin-2-yl]-(3-methoxy-phenyl)-amine] | 6.41 | 5.82 | 5.55 | – | pIC50 (CDK2/cyclin A; [2]): 6.04
Cc1nc(C)c(-c2ccnc(Nc3ccc(N(C)C)c([N+](=O)[O-])c3)n2)s1 [Compound 127, N^4-[4-(2,4-Dimethyl-thiazol-5-yl)-pyrimidin-2-yl]-N^1,N^1-dimethyl-2-nitro-benzene-1,4-diamine] | – | – | 6.89 | 5.82 | –
Cc1nc(N(C)C)sc1-c1ccnc(Nc2cccc(Cl)c2)n1 [Compound 143, (3-Chloro-phenyl)-[4-(2-dimethylamino-4-methyl-thiazol-5-yl)-pyrimidin-2-yl]-amine] | 6.05 | 5.27 | – | – | –
COc1ccc(Nc2nccc(-c3sc(C)nc3C)n2)cc1Cl [Compound 39, (3-Chloro-4-methoxy-phenyl)-[4-(2,4-dimethyl-thiazol-5-yl)-pyrimidin-2-yl]-amine] | 5.25 | < 4.30 | 4.40 | – | –
Cc1nc(C)c(-c2ccnc(Nc3ccc(C#N)cc3)n2)s1 [Compound 35, 4-[4-(2,4-Dimethyl-thiazol-5-yl)-pyrimidin-2-ylamino]-benzonitrile] | 5.10 | < 4.30 | < 4.30 | – | –
CCN(CCO)c1ccc(Nc2nccc(-c3sc(C)nc3C)n2)cc1 [Compound 124, 2-({4-[4-(2,4-Dimethyl-thiazol-5-yl)-pyrimidin-2-ylamino]-phenyl}-ethyl-amino)-ethanol] | 5.52 | 5.17 | 5.07 | – | pIC50 (CDK2/cyclin A; [2]): 5.43

Compound | pIC50 (CDK2/Cyclin E; [1]) | pIC50 (CDK4/Cyclin D1; [3]) | pIC50 (CDK1/Cyclin B) | pIC50 (CDK7/cyclin H; [4]) | other results
Cc1nc(C)c(-c2ccnc(Nc3ccc([N+](C)(C)C)cc3)n2)s1 [Compound 104, {4-[4-(2,4-Dimethyl-thiazol-5-yl)-pyrimidin-2-ylamino]-phenyl}-trimethyl-ammonium] | – | – | – | 6.41 | pIC50 (CDK9/cyclin T1; [5]): 6.85
Cc1nc(N)sc1-c1ccnc(Nc2ccc([N+](=O)[O-])cc2)n1 [Compound 151, [4-(2-Amino-4-methyl-thiazol-5-yl)-pyrimidin-2-yl]-(4-nitro-phenyl)-amine] | 6.74 | < 4.30 | – | – | –
CNc1nc(C)c(-c2ccnc(Nc3ccc(O)cc3)n2)s1 [Compound 48, 4-[4-(4-Methyl-2-methylamino-thiazol-5-yl)-pyrimidin-2-ylamino]-phenol] | – | – | – | 6.07 | pIC50 (CDK9/cyclin T1; [5]): 7.12
Cc1nc(C)c(-c2ccnc(Nc3cccc(O)c3)n2)s1 [Compound 27, 3-[4-(2,4-Dimethyl-thiazol-5-yl)-pyrimidin-2-ylamino]-phenol] | – | – | 5.92 | 5.49 | pIC50 (CDK9/cyclin T1; [5]): 6.62
Cc1nc(N)sc1-c1ccnc(Nc2ccc(O)cc2)n1 [Compound 98, 4-[4-(2-Amino-4-methyl-thiazol-5-yl)-pyrimidin-2-ylamino]-phenol] | – | – | – | 6.00 | pIC50 (CDK9/cyclin T1; [5]): 7.35
CCCCNc1nc(C)c(-c2ccnc(Nc3ccc(F)cc3)n2)s1 [Compound 139, [4-(2-Butylamino-4-methyl-thiazol-5-yl)-pyrimidin-2-yl]-(4-fluoro-phenyl)-amine] | 5.77 | 4.52 | 4.33 | – | pIC50 (CDK2/cyclin A; [2]): 4.60; pIC50 (CDK9/cyclin T1; [5]): 4.64
Cc1nc(N(C)C)sc1-c1ccnc(Nc2ccc(F)cc2)n1 [Compound 142, [4-(2-Dimethylamino-4-methyl-thiazol-5-yl)-pyrimidin-2-yl]-(4-fluoro-phenyl)-amine] | 5.89 | 5.40 | – | – | –
Cc1nc(C)c(-c2ccnc(Nc3ccc(CCO)cc3)n2)s1 [Compound 123, 2-{4-[4-(2,4-Dimethyl-thiazol-5-yl)-pyrimidin-2-ylamino]-phenyl}-ethanol] | 6.33 | 5.48 | 5.72 | – | pIC50 (CDK2/cyclin A; [2]): 6.24
CCNc1nc(C)c(-c2ccnc(Nc3ccc(C)c([N+](=O)[O-])c3)n2)s1 [Compound 138, [4-(2-Ethylamino-4-methyl-thiazol-5-yl)-pyrimidin-2-yl]-(4-methyl-3-nitro-phenyl)-amine] | 5.57 | – | 4.39 | – | pIC50 (CDK2/cyclin A; [2]): 5.02
Cc1nc(N)sc1-c1ccnc(Nc2ccc(C(F)(F)F)cc2)n1 [Compound 110, [4-(2-Amino-4-methyl-thiazol-5-yl)-pyrimidin-2-yl]-(4-trifluoromethyl-phenyl)-amine] | 6.17 | 5.24 | – | – | –
Cc1ccc(Nc2nccc(-c3sc(=O)n(C)c3C)n2)cc1I [Compound 161, 5-[2-(3-Iodo-4-methyl-phenylamino)-pyrimidin-4-yl]-3,4-dimethyl-3H-thiazol-2-one] | – | – | 5.68 | – | pIC50 (CDK2/Cyclin E; Table 4, read-out: Kinase Inhibition IC50 CDK2-cyclin E): 5.49; pIC50 (CDK2/cyclin A; Table 4, read-out: Kinase Inhibition IC50 CDK2-cyclin A): 6.15; pIC50 (CDK4/Cyclin D1; [7]): 5.40; pIC50 (CDK9/cyclin T1; [8]): 6.96
Cc1nc(C)c(-c2ccnc(Nc3cccc(Cl)c3)n2)s1 [Compound 3, (3-Chloro-phenyl)-[4-(2,4-dimethyl-thiazol-5-yl)-pyrimidin-2-yl]-amine] | 5.25 | < 4.30 | 4.49 | < 4.00 | –
Cc1nc(N)sc1-c1ccnc(Nc2cccc(I)c2)n1 [Compound 113, [4-(2-Amino-4-methyl-thiazol-5-yl)-pyrimidin-2-yl]-(3-iodo-phenyl)-amine] | – | – | – | 6.23 | –
Cc1nc(C)c(-c2ccnc(Nc3ccc(Cc4ccncc4)cc3)n2)s1 [Compound 101, [4-(2,4-Dimethyl-thiazol-5-yl)-pyrimidin-2-yl]-(4-pyridin-4-ylmethyl-phenyl)-amine] | 6.16 | 5.96 | – | – | –
Cc1nc(C)c(-c2ccnc(Nc3ccc(F)cc3)n2)s1 [Compound 8, [4-(2,4-Dimethyl-thiazol-5-yl)-pyrimidin-2-yl]-(4-fluoro-phenyl)-amine] | – | – | 4.77 | 4.80 | pIC50 (CDK9/cyclin T1; [5]): 6.51
